Measurements taken from patent US8110544B2, “RasGAP derived peptide for selectively killing cancer cells” (Universite de Lausanne, priority 2003, dated 2012).

Tests used:
NFκB activity = assay: NFκB firefly luciferase reporter assay in U2OS cells; format: cell-based, human; conditions: 20 μM peptide or cisplatin, 20 hours
Description: U2OS Cells (1×10^5) were plated in 6 well plates and transfected with 1 μg of a firefly luciferase reporter plasmid for NFκB activity and 0.1 μg of a plasmid encoding the Renilla luciferase. The cells were treated one day later with the indicated concentrations of cisplatin in the absence or in the presence of 20 μM HV-TAT48-57 or TAT-RaSGAP317-326 peptides during 20 hours. The data represent the firefly luciferase activity normalized to the Renilla luciferase activity and expressed as fold increase of the basal NFκB activity obtained in control untreated cells. The results correspond to the mean±standard deviation of three independent determinations. Asterisks denote significant differences between the indicated conditions (**, p<0.01; ***, p<0.001).
U2OS cells were transfected with 1 μg of a firefly luciferase reporter plasmid for NFκB activity, 0.1 μg of a plasmid encoding the Renilla luciferase, 0.5 μg of a GFP-expressing plasmid (to label the transfected cells), 1 μg of a plasmid encoding IκBαΔN2 that inhibit the NFκB pathway or with 1 μg an empty pcDNA3 vector. The cells were incubated one day later with increasing concentrations of cisplatin in the presence of 20 μM HIV-TAT48-57 or 20 μM TAT-RasGAP317-326 for an additional 20 hour period. The cells were then lysed and the NFκB activity assessed as described in panel A, except that the results were expressed as fold increase of the NFκB activity detected in cells incubated with the control HV-TAT48-57 peptide.
Luciferase assay was performed using the Dual-Luciferase® Reporter Assay from Promega (cat. no E1910). […] The firefly luciferase activity was recorded by mixing 20 μl of the lysate with 25 μl of the LARII Reagent and the Renilla luciferase activity was recorded by adding to the previous mix 25 μl of the Stop & Glo Reagent. For each measurement, light emission was quantified during 12 seconds using a Lumat LB 9501 luminometer (Berthold Technologies, Zurich, Switzerland).

p38 MAPKs = assay: Western blot of phospho-p38 in U2OS cells; format: cell-based, human; conditions: 20 μM peptide
Description: (§1) U2OS cells (2×10^5) were plated in 6 well plates and treated for the indicated periods of time with the indicated combinations of the HW-TAT48-57 or TAT-RasGAP317-326 peptides (at a 20 μM concentration) and cisplatin (at a 30 μM concentration). Positive controls for JNK and p38 activation were obtained following stimulation of the cells with 1 μg/ml anisomycine during 3 hours and with 0.5 M sorbitol for 30 min, respectively. The quantitations depicted under the Western blots were performed on the 12-hour bands and normalized against the positive controls. The results correspond to the mean±standard deviation of three independent experiments. […]

JNK = assay: Western blot of phospho-JNK in U2OS cells; format: cell-based, human; conditions: 20 μM peptide
Description: as §1

HeLa cells [1] = assay: Apoptosis (pycnotic nuclei) of HeLa cells transfected with RasGAP constructs and treated with genotoxins; format: cell-based, human; conditions: for potentiation of cisplatin-induced apoptosis in HeLa cells: transfected construct, 0.15 μM cisplatin, apoptosis scored 20 hours later
Description: HeLa cells (2×10^6) were plated in 10-cm-diameter Petri dishes, transfected with 1 μg of GFP-expressing plasmid (to label the transfected cells) together with 2 μg of an empty pcDNA3 plasmid or 2 μg of a pcDNA3 vector encoding fragment N2. One day following the transfection, the cells were incubated for 24 hours with the indicated concentrations of cisplatin, adriamycin or mitoxantrone. The number of GFP-positive cells displaying pycnotic nucleus was then scored.
HeLa cells were transfected as described in FIG. 1 with plasmids endoding the constructs described in FIG. 2A. HeLa cells were then treated or not with 0.15 μM cisplatin and the extent of apoptosis was determined 20 hours later. The results correspond to the mean±standard deviation of three independent determinations. Asterisks denote a significant difference between the cells treated with 0.15 μM cisplatin and the cells without treatment (**, p<0.01; ***, p<0.001).
HeLa and MCF-7 cells were maintained in RPMI 1640 (Sigma; cat. no 8758) containing 10% newborn calf serum (Sigma; cat. no N4637) at 37° C. and 5% CO2. U2OS cells were maintained in DMEM (Sigma; cat. no 5796) containing 15% foetal calf serum (Sigma; cat. no F7524) at 37° C. and 5% CO2. H-Meso-1 cells were maintained in RPMN 1640 containing 10% foetal calf serum at 37° C. and 5% CO2. […] After 8 hours at 37° C. and 5% CO2, the medium was replaced with fresh culture medium and the cells were further incubated for 16-24 hours before being analyzed.
Apoptosis was determined by scoring the number of cells displaying pycnotic nuclei. Nuclei of live cells were labeled with Hoechst 33342 (10 μg/ml final concentration) for about 5 minutes and the cells were then analyzed (at least 400 cells per condition) using an inverted Leica DMIRB microscope equipped with fluorescence and transmitted light optics. […] In this case, the extent of apoptosis was assessed in the transfected cells only. […]

HeLa cells [2] = conditions: Yang and Widmann 2001; cited from earlier work

N.N.[Cl][Pt][Cl] [cisplatin, reference compound]
NFkB activation in U2OS cells (single agent) (NFκB activity): activated

GRKKRRQRRR [HIV-TAT48-57, reference compound]
activation of p38 MAPK pathway by peptide alone (p38 MAPKs): neither the control HIV-TAT48-57 peptide nor the TAT-RasGAP317-326 peptide activated these MAPK pathways
activation of JNK pathway by peptide alone (JNK): neither the control HIV-TAT48-57 peptide nor the TAT-RasGAP317-326 peptide activated these MAPK pathways

WMWVTNLRTD (listed as Homo sapiens) [317-326, 10 amino acid long peptide expressed from a transfected construct]
potentiation of cisplatin-induced apoptosis in HeLa cells (HeLa cells [1]): potentiated the ability of cisplatin to kill HeLa cells

B1: fragment N2: human RasGAP amino acids 158 to 455, 36 kDa, expressed from plasmid N2.dn3 (protein, UniProt P20936 158-455, looked up, fragment)
chain: SLDGPEYEEEEVAIPLTAPPTNQWYHGKLDRTIAEERLRQAGKSGSYLIRESDRRPGSFVLSFLSQMNVVNHFRIIAMCGDYYIGGRRFSSLSDLIGYYSHVSCLLKGEKLLYPVAPPEPVEDRRRVRAILPYTKVPDTDEISFLKGDMFIVHNELEDGWMWVTNLRTDEQGLIVEDLVEEVGREEDPHEGKIWFHGKISKQEAYNLLMTVGQVCSFLVRPSDNTPGDYSLYFRTNENIQRFKICPTPNNQFMMGGRYYNSIGDIIDHYRKEQIVEGYYLKEPVPMQDQEQVLNDTVD
sensitivity of HeLa cells towards the various drugs relative to control cells (HeLa cells [1]; HeLa cells expressing fragment N2 vs empty pcDNA3, cisplatin, adriamycin, mitoxantrone, 24 hours): at least 10 times
ability of cisplatin to kill the HeLa tumor cell line (HeLa cells [2]): enhances the ability of cisplatin to kill the HeLa tumor cell line

B2: SH2 domain: human RasGAP amino acids 158-277, expressed from plasmid SH2.dn3 (protein, UniProt P20936 158-277, looked up, fragment)
chain: SLDGPEYEEEEVAIPLTAPPTNQWYHGKLDRTIAEERLRQAGKSGSYLIRESDRRPGSFVLSFLSQMNVVNHFRIIAMCGDYYIGGRRFSSLSDLIGYYSHVSCLLKGEKLLYPVAPPEP
modifications: SH2 domain
notes: human RasGAP amino acids 158-277, expressed from plasmid SH2.dn3
potentiation of cisplatin-induced apoptosis in HeLa cells (HeLa cells [1]): did not enhance the ability of cisplatin to kill HeLa cells
